Experimental data from patent US20070049564A1 (Wyeth, priority 2005, published 2007).
Values after ≈ are worked out from the molar mass of the structure shown. Like-named read-outs stand apart in the source and are kept apart here.

Key:
[1] = tested on: E. coli GC 2203; test: MIC, broth microdilution; conditions: Escherichia coli
[2] = tested on: E. coli GC 2235; test: MIC, broth microdilution; conditions: Escherichia coli
[3] = tested on: E. faecalis GC 2242; test: MIC, broth microdilution; conditions: Enterococcus faecalis
[4] = tested on: P. aeruginosa GC 2214; test: MIC, broth microdilution; conditions: Pseudomonas aeruginosa
[5] = tested on: E. coli GC 2231; test: MIC, broth microdilution; conditions: Escherichia coli
[6] = tested on: S. aureus GC 2216; test: MIC, broth microdilution; conditions: Staphylococcus aureus
[7] = tested on: E. coli GC 2232; test: MIC, broth microdilution; conditions: Escherichia coli
[8] = tested on: E. coli GC 2271; test: MIC, broth microdilution; conditions: Escherichia coli
[9] = tested on: E. coli GC 2270; test: MIC, broth microdilution; conditions: Escherichia coli
[10] = tested on: S. aureus GC 6467; test: MIC, broth microdilution; conditions: Staphylococcus aureus
[11] = tested on: E. coli GC 4560; test: MIC, broth microdilution; conditions: Escherichia coli
[12] = tested on: S. agalactiae GC 4564; test: MIC, broth microdilution; conditions: Streptococcus agalactiae
[13] = tested on: E. faecium GC 4556; test: MIC, broth microdilution; conditions: Enterococcus faecium
[14] = tested on: S. pneumoniae* GC 4465; test: MIC, broth microdilution; conditions: Streptococcus pneumoniae
[15] = tested on: S. aureus GC 6335; test: MIC, broth microdilution; conditions: Staphylococcus aureus
[16] = tested on: E. faecalis GC 2267; test: MIC, broth microdilution; conditions: Enterococcus faecalis
[17] = tested on: S. typhimurium GC 2172; test: MIC, broth microdilution; conditions: Salmonella enterica, TYPHIMURIUM
[18] = tested on: E. coli GC 4559; test: MIC, broth microdilution; conditions: Escherichia coli
[19] = tested on: Staph. aureus Smith; test: In vivo activity (oral, iv; ED50) against Staph. aureus Smith in mice
[20] = tested on: E. coli GC 3226; test: MIC, broth microdilution; conditions: Escherichia coli
[21] = read-out: MINIMAL INHIBITORY CONCENTRATION MIC, Human Serum
[22] = read-out: MINIMAL INHIBITORY CONCENTRATION MIC, Mouse Serum
[23] = read-out: MINIMAL INHIBITORY CONCENTRATION MIC, Water

MIC ([1]; GC2203, read-out: MINIMAL INHIBITORY CONCENTRATION MIC, Human Serum): 8 mg/L (≈ 10.2 µM)
MIC ([1]; GC2203, read-out: MINIMAL INHIBITORY CONCENTRATION MIC, Mouse Serum): 0.5 mg/L (≈ 0.64 µM)
MIC ([1]; GC2203, read-out: MINIMAL INHIBITORY CONCENTRATION MIC, Water): 8 mg/L (≈ 10.2 µM)
MIC ([2]; GC2235, read-out: MINIMAL INHIBITORY CONCENTRATION MIC, Human Serum): 4 mg/L (≈ 5.12 µM)
MIC ([2]; GC2235, read-out: MINIMAL INHIBITORY CONCENTRATION MIC, Mouse Serum): 0.5 mg/L (≈ 0.64 µM)
MIC ([2]; GC2235, read-out: MINIMAL INHIBITORY CONCENTRATION MIC, Water): 4 mg/L (≈ 5.12 µM)
MIC ([3]; GC2242, read-out: MINIMAL INHIBITORY CONCENTRATION MIC, Human Serum): 4 mg/L (≈ 5.12 µM)
MIC ([3]; GC2242, read-out: MINIMAL INHIBITORY CONCENTRATION MIC, Mouse Serum): 0.5 mg/L (≈ 0.64 µM)
MIC ([3]; GC2242, read-out: MINIMAL INHIBITORY CONCENTRATION MIC, Water): 4 mg/L (≈ 5.12 µM)
MIC ([4]; GC2214, read-out: MINIMAL INHIBITORY CONCENTRATION MIC, Human Serum): > 64 mg/L
MIC ([4]; GC2214, read-out: MINIMAL INHIBITORY CONCENTRATION MIC, Mouse Serum): 64 mg/L (≈ 81.9 µM)
MIC ([4]; GC2214, read-out: MINIMAL INHIBITORY CONCENTRATION MIC, Water): > 64 mg/L
MIC ([5]; GC2231, read-out: MINIMAL INHIBITORY CONCENTRATION MIC, Human Serum): 8 mg/L (≈ 10.2 µM)
MIC ([5]; GC2231, read-out: MINIMAL INHIBITORY CONCENTRATION MIC, Mouse Serum): 1 mg/L (≈ 1.28 µM)
MIC ([5]; GC2231, read-out: MINIMAL INHIBITORY CONCENTRATION MIC, Water): 16 mg/L (≈ 20.5 µM)
MIC ([6]; GC2216, read-out: MINIMAL INHIBITORY CONCENTRATION MIC, Human Serum): 1 mg/L (≈ 1.28 µM)
MIC ([6]; GC2216, read-out: MINIMAL INHIBITORY CONCENTRATION MIC, Mouse Serum): 0.5 mg/L (≈ 0.64 µM)
MIC ([6]; GC2216, read-out: MINIMAL INHIBITORY CONCENTRATION MIC, Water): 4 mg/L (≈ 5.12 µM)
MIC ([7]; GC2232, read-out: MINIMAL INHIBITORY CONCENTRATION MIC, Human Serum): 4 mg/L (≈ 5.12 µM)
MIC ([7]; GC2232, read-out: MINIMAL INHIBITORY CONCENTRATION MIC, Mouse Serum): 0.5 mg/L (≈ 0.64 µM)
MIC ([7]; GC2232, read-out: MINIMAL INHIBITORY CONCENTRATION MIC, Water): 8 mg/L (≈ 10.2 µM)
MIC ([8]; GC2271, read-out: MINIMAL INHIBITORY CONCENTRATION MIC, Human Serum): 4 mg/L (≈ 5.12 µM)
MIC ([8]; GC2271, read-out: MINIMAL INHIBITORY CONCENTRATION MIC, Mouse Serum): 0.5 mg/L (≈ 0.64 µM)
MIC ([8]; GC2271, read-out: MINIMAL INHIBITORY CONCENTRATION MIC, Water): 4 mg/L (≈ 5.12 µM)
MIC ([9]; GC2270, read-out: MINIMAL INHIBITORY CONCENTRATION MIC, Human Serum): 4 mg/L (≈ 5.12 µM)
MIC ([9]; GC2270, read-out: MINIMAL INHIBITORY CONCENTRATION MIC, Mouse Serum): 0.5 mg/L (≈ 0.64 µM)
MIC ([9]; GC2270, read-out: MINIMAL INHIBITORY CONCENTRATION MIC, Water): 4 mg/L (≈ 5.12 µM)
MIC ([10]; GC6467, read-out: MINIMAL INHIBITORY CONCENTRATION MIC, Human Serum): 4 mg/L (≈ 5.12 µM)
MIC ([10]; GC6467, read-out: MINIMAL INHIBITORY CONCENTRATION MIC, Mouse Serum): 0.5 mg/L (≈ 0.64 µM)
MIC ([10]; GC6467, read-out: MINIMAL INHIBITORY CONCENTRATION MIC, Water): 4 mg/L (≈ 5.12 µM)
MIC ([11]; GC4560, read-out: MINIMAL INHIBITORY CONCENTRATION MIC, Human Serum): 2 mg/L (≈ 2.56 µM)
MIC ([11]; GC4560, read-out: MINIMAL INHIBITORY CONCENTRATION MIC, Mouse Serum): 0.25 mg/L (≈ 0.32 µM)
MIC ([11]; GC4560, read-out: MINIMAL INHIBITORY CONCENTRATION MIC, Water): 2 mg/L (≈ 2.56 µM)
MIC ([12]; GC4564, read-out: MINIMAL INHIBITORY CONCENTRATION MIC, Human Serum): 0.5 mg/L (≈ 0.64 µM)
MIC ([12]; GC4564, read-out: MINIMAL INHIBITORY CONCENTRATION MIC, Mouse Serum): 0.12 mg/L (≈ 0.153 µM)
MIC ([12]; GC4564, read-out: MINIMAL INHIBITORY CONCENTRATION MIC, Water): 0.5 mg/L (≈ 0.64 µM)
MIC ([13]; GC4556, read-out: MINIMAL INHIBITORY CONCENTRATION MIC, Human Serum): 2 mg/L (≈ 2.56 µM)
MIC ([13]; GC4556, read-out: MINIMAL INHIBITORY CONCENTRATION MIC, Mouse Serum): 0.5 mg/L (≈ 0.64 µM)
MIC ([13]; GC4556, read-out: MINIMAL INHIBITORY CONCENTRATION MIC, Water): 4 mg/L (≈ 5.12 µM)
MIC [14, 21]: 0.25 mg/L (≈ 0.32 µM)
MIC [14, 22]: < 0.06 mg/L
MIC [14, 23]: 0.12 mg/L (≈ 0.153 µM)
MIC ([15]; GC6335, read-out: MINIMAL INHIBITORY CONCENTRATION MIC, Human Serum): 2 mg/L (≈ 2.56 µM)
MIC ([15]; GC6335, read-out: MINIMAL INHIBITORY CONCENTRATION MIC, Mouse Serum): 1 mg/L (≈ 1.28 µM)
MIC ([15]; GC6335, read-out: MINIMAL INHIBITORY CONCENTRATION MIC, Water): 4 mg/L (≈ 5.12 µM)
MIC ([16]; GC2267, read-out: MINIMAL INHIBITORY CONCENTRATION MIC, Human Serum): 4 mg/L (≈ 5.12 µM)
MIC ([16]; GC2267, read-out: MINIMAL INHIBITORY CONCENTRATION MIC, Mouse Serum): 0.5 mg/L (≈ 0.64 µM)
MIC ([16]; GC2267, read-out: MINIMAL INHIBITORY CONCENTRATION MIC, Water): 4 mg/L (≈ 5.12 µM)
MIC [17, 21]: 64 mg/L (≈ 81.9 µM)
MIC [17, 22]: 4 mg/L (≈ 5.12 µM)
MIC [17, 23]: 64 mg/L (≈ 81.9 µM)
MIC ([18]; GC4559, read-out: MINIMAL INHIBITORY CONCENTRATION MIC, Human Serum): 8 mg/L (≈ 10.2 µM)
MIC ([18]; GC4559, read-out: MINIMAL INHIBITORY CONCENTRATION MIC, Mouse Serum): 1 mg/L (≈ 1.28 µM)
MIC ([18]; GC4559, read-out: MINIMAL INHIBITORY CONCENTRATION MIC, Water): 8 mg/L (≈ 10.2 µM)
MIC ([20]; GC3226, read-out: MINIMAL INHIBITORY CONCENTRATION MIC, Human Serum): 16 mg/L (≈ 20.5 µM)
MIC ([20]; GC3226, read-out: MINIMAL INHIBITORY CONCENTRATION MIC, Mouse Serum): 1 mg/L (≈ 1.28 µM)
MIC ([20]; GC3226, read-out: MINIMAL INHIBITORY CONCENTRATION MIC, Water): 16 mg/L (≈ 20.5 µM)
Structure (SMILES): CN(C)c1cc(NC(=O)CN(C(=O)OCOC(=O)c2ccc(F)cc2)C(C)(C)C)c(O)c2c1C[C@H]1C[C@H]3[C@H](N(C)C)C(O)=C(C(N)=O)C(=O)[C@@]3(O)C(O)=C1C2=O [Example 52, ({[(2-{[(5aR,6aS,7S,10aS)-9-(aminocarbonyl)-4,7-bis(dimethylamino)-1,8,10a,11-tetrahydroxy-10,12-dioxo-5,5a,6,6a,7,10,10a,12-octahydrotetracen-2-yl]amino}-2-oxoethyl)(tert-butyl)amino]carbonyl}oxy)methyl 4-fluorobenzoate]
ED50 ([19]; Staphylococcus aureus, in Mus musculus, iv, read-out: ED50 SIV (Staph aureus Smith)): 1.29 mg/kg
ED50 ([19]; Staphylococcus aureus, in Mus musculus, po, read-out: ED50 SOD (Staph aureus Smith)): 10.7 mg/kg
ED50 ([19]; Staphylococcus aureus, in Mus musculus, po, read-out: ED50 Staph Smith SOD): 10.7 mg/kg
ED50 ([19]; iv, read-out: ED50 Staph Smith SIV): 1.29 mg/kg
